For 22 molecules, IC50 results are on record in US8143290B2, “Chemical compounds 572” (AstraZeneca AB, priority 2006, dated 2012).

This test addresses T1, recombinant human GR (Homo sapiens, UniProt P04150).
T1 construct: purchased Panvera/Invitrogen P2812 (kit P2893)
T1 sequence (P04150 1-777): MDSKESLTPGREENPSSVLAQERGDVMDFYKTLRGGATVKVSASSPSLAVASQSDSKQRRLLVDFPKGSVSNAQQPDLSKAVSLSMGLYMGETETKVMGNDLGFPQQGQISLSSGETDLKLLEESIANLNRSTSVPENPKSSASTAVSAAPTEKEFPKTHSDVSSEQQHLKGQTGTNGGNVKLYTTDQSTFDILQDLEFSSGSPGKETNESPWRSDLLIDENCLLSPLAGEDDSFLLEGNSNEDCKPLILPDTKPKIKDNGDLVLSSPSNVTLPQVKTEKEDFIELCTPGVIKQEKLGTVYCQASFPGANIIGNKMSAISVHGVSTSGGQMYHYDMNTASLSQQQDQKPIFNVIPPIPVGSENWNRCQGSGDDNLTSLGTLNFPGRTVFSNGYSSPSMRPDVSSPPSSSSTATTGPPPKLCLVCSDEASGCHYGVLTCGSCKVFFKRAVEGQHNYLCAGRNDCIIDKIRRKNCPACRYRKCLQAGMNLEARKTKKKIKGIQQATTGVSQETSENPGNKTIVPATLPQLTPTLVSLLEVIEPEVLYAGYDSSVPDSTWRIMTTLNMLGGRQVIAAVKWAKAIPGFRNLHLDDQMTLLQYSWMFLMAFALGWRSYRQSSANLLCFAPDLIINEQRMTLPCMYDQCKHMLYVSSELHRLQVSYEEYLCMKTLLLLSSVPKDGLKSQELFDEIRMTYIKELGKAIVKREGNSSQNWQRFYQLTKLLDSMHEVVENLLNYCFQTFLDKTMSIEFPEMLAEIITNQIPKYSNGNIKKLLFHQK
The test is described as follows: Human Glucocorticoid Receptor (GR) Assay, fluorescence polarization. As to conditions: GS Red tracer, incubated 2 h at r.t., XLfit model 205, read-out: GRhuFL_FP_v2 Mean IC50. Format: binding. The method in brief:
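After 2 h dark incubation at r.t., polarization reported displacement of the GS Red tracer from recombinant GR, in buffer with phosphate, molybdate, EDTA, DTT and Stabilizing Peptide. Controls: dexamethasone (100%) and DMSO (0%).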

Structures are written as SMILES.

Regarding `COCC(=O)N[C@@H](C)[C@H](Oc1ccc2c(cnn2-c2ncccn2)c1)c1ccccc1` [Example 120, 2-Methoxy-N-[1-methyl-2-phenyl-2-(1-pyrimidin-2-yl-1H-indazol-5-yloxy)-ethyl]-acetamide], the IC50 came to 210 nM.
In the case of `COc1cccc([C@@H](Oc2ccc3c(cnn3-c3ccc(F)cc3)c2)[C@H](C)NC(=O)CO)c1` [Example 121, N-[(1R,2S)-1-[1-(4-fluorophenyl)indazol-5-yl]oxy-1-(3-methoxyphenyl)propan-2-yl]-2-hydroxy-acetamide], the IC50 is 2.8 nM.
For the molecule `C[C@H](NC(=O)CO)[C@H](Oc1ccc2c(cnn2-c2ccc(F)cc2)c1)c1ccc2c(c1)OCCO2` [Example 123, N-((1R,2S)-1-(2,3-dihydrobenzo[b][1,4]dioxin-6-yl)-1-(1-(4-fluorophenyl)-1H-indazol-5-yloxy)propan-2-yl)-2-hydroxyacetamide], the IC50 was 4.2 nM.
With `C[C@H](NC(=O)C1(C)CC1)[C@H](Oc1ccc2c(cnn2-c2ccc(F)cc2)c1)c1ccc2c(c1)OCCO2` [Example 124, N-((1R,2S)-1-(2,3-dihydrobenzo[b][1,4]dioxin-6-yl)-1-(1-(4-fluorophenyl)-1H-indazol-5-yloxy)propan-2-yl)-1-methylcyclopropanecarboxamide], the IC50 is 2.7 nM.
For the molecule `C[C@H](NC(=O)[C@@H]1CCCN1)[C@H](Oc1ccc2c(cnn2-c2ccc(F)cc2)c1)c1ccc2c(c1)OCCO2` [Example 125, (S)-N-((1R,2S)-1-(2,3-dihydrobenzo[b][1,4]dioxin-6-yl)-1-(1-(4-fluorophenyl)-1H-indazol-5-yloxy)propan-2-yl)pyrrolidine-2-carboxamide], the IC50 worked out at 6.4 nM.
To `COc1cccc([C@@H](Oc2ccc3c(cnn3-c3ccc(Cl)cc3)c2)[C@H](C)NC(=O)C(F)(F)F)c1` [Example 126, N-((1R,2S)-1-(1-(4-chlorophenyl)-1H-indazol-5-yloxy)-1-(3-methoxyphenyl)propan-2-yl)-2,2,2-trifluoroacetamide] belongs 2.9 nM; to `COc1cccc([C@@H](Oc2ccc3c(cnn3-c3ccc(Cl)cc3)c2)[C@H](C)NC(=O)C(C)(F)F)c1` [Example 128, N-((1R,2S)-1-(1-(4-chlorophenyl)-1H-indazol-5-yloxy)-1-(3-methoxyphenyl)propan-2-yl)-2,2-difluoropropanamide], 3.9 nM; to `CC(C)n1ncc2cc(O[C@H](c3ccccc3)[C@H](C)NC(=O)C(F)(F)F)ccc21` [Example 129, 2,2,2-Trifluoro-N-[(1R,2S)-1-phenyl-1-(1-propan-2-ylindazol-5-yl)oxy-propan-2-yl]acetamide], 11 nM.
For the molecule `C[C@H](NC(=O)C(F)(F)F)[C@H](Oc1ccc2c(cnn2C2CCCC2)c1)c1ccccc1` [Example 130, N-[(1R,2S)-1-(1-cyclopentylindazol-5-yl)oxy-1-phenyl-propan-2-yl]-2,2,2-trifluoro-acetamide], the IC50 was 2.5 nM.
As to `COc1cccc([C@@H](Oc2ccc3c(cnn3-c3ccc(F)cc3)c2)[C@H](C)NC(=O)c2ccc(C)s2)c1` [Example 131, N-[(1R,2S)-1-[1-(4-fluorophenyl)indazol-5-yl]oxy-1-(3-methoxyphenyl)propan-2-yl]-5-methyl-thiophene-2-carboxamide], the IC50 turned out to be 4 nM.
To `COc1cccc([C@@H](Oc2ccc3c(cnn3-c3ccc(F)cc3)c2)[C@H](C)NC(=O)c2sccc2C)c1` [Example 132, N-[(1R,2S)-1-[1-(4-fluorophenyl)indazol-5-yl]oxy-1-(3-methoxyphenyl)propan-2-yl]-3-methyl-thiophene-2-carboxamide] belongs 4.1 nM.
Consider `COc1cccc([C@@H](Oc2ccc3c(cnn3-c3ccc(F)cc3)c2)[C@H](C)NC(=O)c2cccn2C)c1` [Example 133, N-[(1R,2S)-1-[1-(4-fluorophenyl)indazol-5-yl]oxy-1-(3-methoxyphenyl)propan-2-yl]-1-methyl-pyrrole-2-carboxamide], for which the IC50 was 3.3 nM.
Turning to `COc1cccc([C@@H](Oc2ccc3c(cnn3-c3ccc(F)cc3)c2)[C@H](C)NC(=O)c2ccsc2)c1` [Example 134, N-[(1R,2S)-1-[1-(4-fluorophenyl)indazol-5-yl]oxy-1-(3-methoxyphenyl)propan-2-yl]thiophene-3-carboxamide], the IC50 worked out at 3.6 nM.
With `COc1cccc([C@@H](Oc2ccc3c(cnn3-c3ccc(F)cc3)c2)[C@H](C)NC(=O)c2nccs2)c1` [Example 135, N-[(1R,2S)-1-[1-(4-fluorophenyl)indazol-5-yl]oxy-1-(3-methoxyphenyl)propan-2-yl]1,3-thiazole-2-carboxamide], the IC50 was 3.1 nM.
To `COc1cccc([C@@H](Oc2ccc3c(cnn3-c3ccc(F)cc3)c2)[C@H](C)NC(=O)c2cc(C)on2)c1` [Example 136, N-[(1R,2S)-1-[1-(4-fluorophenyl)indazol-5-yl]oxy-1-(3-methoxyphenyl)propan-2-yl]-5-methyl-1,2-oxazole-3-carboxamide] belongs 3 nM.
Turning to `CC(C)C(=O)NC(=O)C(Oc1ccc2c(cnn2-c2ccc(F)cc2)c1)c1ccccc1` (stereo not shown) [Example 137, N-[2-[1-(4-fluorophenyl)indazol-5-yl]oxy-2-phenyl-acetyl]-2-methyl-propanamide], the IC50 came out at 360 nM.
For the molecule `C[C@H](NC(=O)C1(O)CC1)[C@H](Oc1ccc2c(cnn2-c2ccc(F)cc2)c1)c1ccc(C(F)(F)F)cc1` [Example 139, N-[(1R,2S)-1-[1-(4-fluorophenyl)indazol-5-yl]oxy-1-[4-(trifluoromethyl)phenyl]propan-2-yl]-1-hydroxy-cyclopropane-1-carboxamide], the IC50 is 4.1 nM.
`C[C@H](NC(=O)C(F)(F)F)[C@H](Oc1ccc2c(cnn2-c2ccc(CO)cc2)c1)c1ccccc1` [Example 141, 2,2,2-trifluoro-N-((1R,2S)-1-(1-(4-(hydroxymethyl)phenyl)-1H-indazol-5-yloxy)-1-phenylpropan-2-yl)acetamide]: the concentration for half-maximal inhibition (IC50) stood at 3.3 nM.
`C[C@H](NC(=O)C(F)(F)F)[C@H](Oc1ccc2c(cnn2-c2ccc(CN3CCOCC3)cc2)c1)c1ccccc1` [Example 142, 2,2,2-trifluoro-N-((1R,2S)-1-(1-(4-(morpholinomethyl)phenyl)-1H-indazol-5-yloxy)-1-phenylpropan-2-yl)acetamide]: the concentration for half-maximal inhibition (IC50) is 5.6 nM.
The same measure for `C[C@H](NC(=O)C(F)(F)F)[C@H](Oc1ccc2c(cnn2-c2ccc(CN(C)C)cc2)c1)c1ccccc1` [Example 143, N-((1R,2S)-1-(1-(4-((dimethylamino)methyl)phenyl)-1H-indazol-5-yloxy)-1-phenylpropan-2-yl)-2,2,2-trifluoroacetamide]: 23 nM.
Turning to `C[C@H](NC(=O)C(F)(F)F)[C@H](Oc1ccc2c(cnn2-c2cccc(CO)c2)c1)c1ccccc1` [Example 144, 2,2,2-trifluoro-N-((1R,2S)-1-(1-(3-(hydroxymethyl)phenyl)-1H-indazol-5-yloxy)-1-phenylpropan-2-yl)acetamide], the IC50 came to 3 nM.
The same measure for `C[C@H](NC(=O)C(F)(F)F)[C@H](Oc1ccc2c(cnn2-c2cccc(CN3CCOCC3)c2)c1)c1ccccc1` [Example 145, 2,2,2-trifluoro-N-((1R,2S)-1-(1-(3-(morpholinomethyl)phenyl)-1H-indazol-5-yloxy)-1-phenylpropan-2-yl)acetamide]: 5.5 nM.
